Calls of active or inactive are those of the source. The rule behind the calls is not given here.
Assays:
CCRF-CEM [1] = assay: Cytotoxicity against human CCRF-CEM cells assessed as reduction in cell viability at 25 uM incubated for 72 hrs by MTT assay; type: functional
H9c2 [2] = assay: Cytotoxicity against rat H9c2 cells assessed as reduction in cell viability at 5 to 25 uM incubated upto 96 hrs by MTT assay; type: cell-based; settings: h9c2, 96 h, dose 5-25 µM
Rattus norvegicus = organism: Rattus norvegicus; assay: Drug uptake in nucleus of rat H9c2 cells measured after 24 hrs by DAPI staining based confocal microscopy analysis; type: ADME, cell-based; settings: h9c2, 24 h
H9c2 [3] = assay: Cytotoxicity against rat H9c2 cells assessed as change in cell morphology at 5uM measured after 72 hours; type: cell-based; settings: h9c2, 72 h
CCRF-CEM [4] = assay: Cytotoxicity against human CCRF-CEM cells assessed as reduction in cell viability at 5 uM incubated for 72 hrs by MTT assay; type: functional
CCRF-CEM [5] = assay: Cytotoxicity against human CCRF-CEM cells assessed as reduction in cell viability at 5 uM incubated for 24 hrs by MTT assay; type: functional
[6] = Drug uptake in nucleus of human SK-OV-3 cells incubated for 3 hrs by fluorescence microscopy; type: ADME, subcellular; settings: sk-ov-3, 3 h
MES-SA = assay: Cytotoxicity against human MES-SA cells assessed as reduction in cell viability incubated for 72 hrs by MTT assay; type: functional; settings: read-out: LC50 (the source's name)
MDA-MB-231 [7] = assay: Cytotoxicity against doxorubicin resistant human MDA-MB-231 cells assessed as reduction in cell viability incubated for 72 hrs by MTT assay; type: functional; settings: read-out: LC50 (the source's name)
H9c2 [8] = assay: Cytotoxicity against rat H9c2 cells assessed as reduction in cell viability at 5 uM incubated for 24 hrs by MTT assay; type: cell-based; settings: h9c2, 24 h
H9c2 [9] = assay: Cytotoxicity against rat H9c2 cells assessed as reduction in cell viability at 5 uM incubated for 72 hrs by MTT assay; type: cell-based; settings: h9c2, 72 h
H9c2 [10] = assay: Cytotoxicity against rat H9c2 cells assessed as reduction in cell viability at 5 uM incubated for 96 hrs by MTT assay; type: cell-based; settings: h9c2, 96 h
LLC-PK1 [11] = assay: Cytotoxicity against pig LLC-PK1 cells assessed as reduction in cell viability at 5 uM incubated for 24 hrs by MTT assay; type: cell-based, Sus scrofa; settings: llc-pk1, 24 h
LLC-PK1 [12] = assay: Cytotoxicity against pig LLC-PK1 cells assessed as reduction in cell viability at 5 uM incubated for 72 hrs by MTT assay; type: cell-based, Sus scrofa; settings: llc-pk1, 72 h
AGS [13] = assay: Cytotoxicity against human AGS cells assessed as reduction in cell viability at 5 uM incubated for 24 hrs by MTT assay; type: functional
AGS [14] = assay: Cytotoxicity against human AGS cells assessed as reduction in cell viability at 5 uM incubated for 72 hrs by MTT assay; type: functional
SK-OV-3 [15] = assay: Cytotoxicity against human SK-OV-3 cells assessed as reduction in cell viability at 5 uM incubated for 24 hrs by MTT assay; type: functional
SK-OV-3 [16] = assay: Cytotoxicity against human SK-OV-3 cells assessed as reduction in cell viability at 5 uM incubated for 72 hrs by MTT assay; type: functional
MDA-MB-231 [17] = assay: Cytotoxicity against wild type human MDA-MB-231 cells assessed as reduction in cell viability incubated for 72 hrs by MTT assay; type: functional; settings: read-out: LC50 (the source's name)
CCRF-CEM [18] = assay: Cytotoxicity against human CCRF-CEM cells assessed as reduction in cell viability at 25 uM incubated for 24 hrs by MTT assay; type: functional
LLC-PK1 [19] = assay: Cytotoxicity against pig LLC-PK1 cells assessed as reduction in cell viability at 5 to 50 uM incubated for 72 hrs by MTT assay; type: cell-based, Sus scrofa; settings: llc-pk1, 72 h, dose 5-50 µM
AGS [20] = assay: Cytotoxicity against human AGS cells assessed as reduction in cell viability at 5 to 10 uM incubated for 24 to 72 hrs by MTT assay; type: functional, cell-based; settings: dose 5-10 µM, time 24-72 hrs
AGS [21] = assay: Cytotoxicity against human AGS cells assessed as reduction in cell viability at 25 uM incubated for 72 hrs by MTT assay; type: functional
AGS [22] = assay: Cytotoxicity against human AGS cells assessed as reduction in cell viability at 50 uM incubated for 72 hrs by MTT assay; type: functional
SK-OV-3 [23] = assay: Cytotoxicity against human SK-OV-3 cells assessed as reduction in cell viability at 5 to 25 uM incubated for 24 hrs by MTT assay; type: functional; settings: dose 5-25 µM
SK-OV-3 [24] = assay: Cytotoxicity against human SK-OV-3 cells assessed as reduction in cell viability at 25 uM incubated for 72 hrs by MTT assay; type: functional
LLC-PK1 [25] = assay: Cytotoxicity against pig LLC-PK1 cells assessed as reduction in cell viability at 50 uM after 24 hrs of incubation by MTT assay; type: cell-based, Sus scrofa; settings: llc-pk1, 24 h
CCRF-CEM [26] = assay: Cytotoxicity against human CCRF-CEM cells assessed as reduction in cell viability at 5 to 10 uM after 72 hrs incubation by MTT assay; type: functional; settings: dose 5-10 µM
CCRF-CEM [27] = assay: Cytotoxicity against human CCRF-CEM cells assessed as reduction in cell viability at 5 to 10 uM incubated for 24 hrs by MTT assay; type: functional, cell-based; settings: dose 5-10 µM
[28] = Drug uptake in rat H9c2 cells assessed as doxorubicin fluorescence measured at 24 to 72 hrs by fluorescence microscopy analysis; type: ADME, cell-based; settings: time 24-72 hrs
[29] = Drug uptake in human SK-OV-3 cells at 5 uM incubated for 24 hrs by fluorescence microscopy; type: ADME, cell-based; settings: sk-ov-3, 24 h
[30] = Drug uptake in human SK-OV-3 cells assessed as doxorubicin fluorescence incubated for 3 hrs by fluorescence microscopy; type: ADME, cell-based; settings: sk-ov-3, 3 h
[31] = Stability of compound in 10% FBS assessed as parent compound remaining after 24 hrs by HPLC analysis; type: ADME; settings: cattle, 10% FBS (fetal bovine serum), read-out: Stability
H9c2 [32] = assay: Cytotoxicity against rat H9c2 cells assessed as reduction in cell viability at 5 to 10 uM incubated upto 96 hrs by MTT assay; type: cell-based; settings: h9c2, 96 h, dose 5-10 µM
H9c2 [33] = assay: Cytotoxicity against rat H9c2 cells assessed as reduction in cell viability at 25 uM incubated for 24 hrs by MTT assay; type: cell-based; settings: h9c2, 24 h
H9c2 [34] = assay: Cytotoxicity against rat H9c2 cells assessed as reduction in cell viability at 25 uM incubated for 72 hrs by MTT assay; type: cell-based; settings: h9c2, 72 h
H9c2 [35] = assay: Cytotoxicity against rat H9c2 cells assessed as reduction in cell viability at 25 uM incubated for 96 hrs by MTT assay; type: cell-based; settings: h9c2, 96 h
LLC-PK1 [36] = assay: Cytotoxicity against pig LLC-PK1 cells assessed as reduction in cell viability at 10 uM incubated for 24 to 72 hrs by MTT assay; type: cell-based, Sus scrofa; settings: llc-pk1, 10 µM, time 24-72 hrs
LLC-PK1 [37] = assay: Cytotoxicity against pig LLC-PK1 cells assessed as reduction in cell viability at 50 uM by MTT assay; type: cell-based, Sus scrofa; settings: llc-pk1, 50 µM
AGS [38] = assay: Cytotoxicity against human AGS cells assessed as reduction in cell viability at 5 to 10 uM incubated for 24 hrs by MTT assay; type: functional, cell-based; settings: dose 5-10 µM
AGS [39] = assay: Cytotoxicity against human AGS cells assessed as reduction in cell viability incubated for 72 hrs by MTT assay; type: functional
SK-OV-3 [40] = assay: Cytotoxicity against human SK-OV-3 cells assessed as reduction in cell viability at 10 uM incubated for 72 hrs by MTT assay; type: functional
[41] = Drug uptake in nucleus of human MDA-MB-231 cells by confocal microscopy in the presence of 6 ug/mL chloroquine; type: ADME, subcellular
[42] = Protein binding in 20% FBS by HPLC analysis; type: ADME, cell-free, Bos taurus; settings: cattle, serum
CCRF-CEM [43] = assay: Cytotoxicity against human CCRF-CEM cells assessed as reduction in cell viability at 5 to 25 uM after 72 hrs incubation by MTT assay; type: functional; settings: dose 5-25 µM
[44] = Drug uptake in nucleus of human MDA-MB-231 cells by confocal microscopy in the presence of 20 ug/mL chlorpromazine; type: ADME, subcellular
[45] = Drug uptake in nucleus of human MDA-MB-231 cells by confocal microscopy in the presence of 50 ug/mL nystatin; type: ADME, subcellular
[46] = Drug uptake in nucleus of human MDA-MB-231 cells by confocal microscopy in the presence of 50 ug/mL genistein; type: ADME, subcellular
[47] = Drug uptake in human MDA-MB-231 cells by flow cytometry in the presence of 30 uM chlorpromazine; type: ADME, cell-based
[48] = Drug uptake in human MDA-MB-231 cells by flow cytometry in the presence of 2.5 mM methyl-beta-cyclodextrin; type: ADME, cell-based
[49] = Drug uptake in human MDA-MB-231 cells by flow cytometry in the presence of 100 uM chloroquine; type: ADME, cell-based
[50] = Drug uptake in human MDA-MB-231cells by flow cytometry in the presence of 50 ug/mL nystatin; type: ADME

COc1cccc2c1C(=O)c1c(O)c3c(c(O)c1C2=O)C[C@@](O)(C(=O)CO)C[C@@H]3O[C@H]1C[C@H](NC(=N)CCCSSC[C@H](NC(C)=O)C(=O)N[C@@H](Cc2c[nH]c3ccccc23)C(=O)N[C@@H](Cc2c[nH]c3ccccc23)C(=O)N[C@@H](Cc2c[nH]c3ccccc23)C(=O)N[C@@H](Cc2c[nH]c3ccccc23)C(=O)N[C@@H](Cc2c[nH]c3ccccc23)C(=O)N[C@@H](Cc2c[nH]c3ccccc23)C(=O)N[C@@H](Cc2c[nH]c3ccccc23)C(=O)NCCCC[C@@H]2NC(=O)[C@H](CCCNC(=N)N)NC(=O)[C@H](CCCNC(=N)N)NC(=O)[C@H](CCCNC(=N)N)NC(=O)[C@H](CCCNC(=N)N)NC(=O)[C@H](CCCNC(=N)N)NC2=O)[C@H](O)[C@H](C)O1
Activity (CCRF-CEM [1]): 79%
Activity (H9c2 [2]): Non-Toxic

COc1cccc2c1C(=O)c1c(O)c3c(c(O)c1C2=O)C[C@@](O)(C(=O)CO)C[C@@H]3O[C@H]1C[C@H](N)[C@H](O)[C@H](C)O1 [DOXORUBICIN]
Drug uptake (Rattus norvegicus): Active
Activity (H9c2 [3]): Toxic
Activity (CCRF-CEM [4]): 85%
Activity (CCRF-CEM [5]): 52%
Drug uptake [6]: Active
CC50 (MES-SA): 4.3 µM
CC50 (MDA-MB-231 [7]): 2.3 µM
Activity (H9c2 [8]): 20%
Activity (H9c2 [9]): 44%
Activity (H9c2 [10]): 44%
Activity (LLC-PK1 [11]): 64%
Activity (LLC-PK1 [12]): 77%
Activity (AGS [13]): 46%
Activity (AGS [14]): 87%
Activity (SK-OV-3 [15]): 27%
Activity (SK-OV-3 [16]): 33%
CC50 (MDA-MB-231 [17]): 0.45 µM

N=C(N)NCCC[C@@H]1NC(=O)[C@H](CCCCNC(=O)[C@H](Cc2c[nH]c3ccccc23)NC(=O)[C@H](Cc2c[nH]c3ccccc23)NC(=O)[C@H](Cc2c[nH]c3ccccc23)NC(=O)[C@H](Cc2c[nH]c3ccccc23)NC(=O)[C@H](Cc2c[nH]c3ccccc23)NC(=O)[C@H](Cc2c[nH]c3ccccc23)NC(=O)[C@H](Cc2c[nH]c3ccccc23)NC(=O)CCN)NC(=O)[C@H](CCCNC(=N)N)NC(=O)[C@H](CCCNC(=N)N)NC(=O)[C@H](CCCNC(=N)N)NC(=O)[C@H](CCCNC(=N)N)NC1=O
Activity (CCRF-CEM [18]): 68%
Activity (LLC-PK1 [19]): Non-Toxic
Activity (AGS [20]): inactive
Activity (AGS [21]): 24%
Activity (AGS [22]): 87%
Activity (SK-OV-3 [23]): 21%
Activity (SK-OV-3 [24]): 19%
Activity (LLC-PK1 [25]): 71%
Activity (CCRF-CEM [26]): 10%

COc1cccc2c1C(=O)c1c(O)c3c(c(O)c1C2=O)C[C@@](O)(C(=O)COC(=O)CCCC(=O)NCCC(=O)N[C@@H](Cc1c[nH]c2ccccc12)C(=O)N[C@@H](Cc1c[nH]c2ccccc12)C(=O)N[C@@H](Cc1c[nH]c2ccccc12)C(=O)N[C@@H](Cc1c[nH]c2ccccc12)C(=O)N[C@@H](Cc1c[nH]c2ccccc12)C(=O)N[C@@H](Cc1c[nH]c2ccccc12)C(=O)N[C@@H](Cc1c[nH]c2ccccc12)C(=O)NCCCC[C@@H]1NC(=O)[C@H](CCCNC(=N)N)NC(=O)[C@H](CCCNC(=N)N)NC(=O)[C@H](CCCNC(=N)N)NC(=O)[C@H](CCCNC(=N)N)NC(=O)[C@H](CCCNC(=N)N)NC1=O)C[C@@H]3O[C@H]1C[C@H](N)[C@H](O)[C@H](C)O1
Activity (CCRF-CEM [18]): 64%
Activity (CCRF-CEM [27]): Active
Drug uptake [28]: Not Active
Drug uptake [29]: Active
Drug uptake [30]: Not Active
CC50 (MES-SA): 41 µM
CC50 (MDA-MB-231 [7]): 36 µM
remaining at 24 h [31]: 25%
Activity (H9c2 [32]): Non-Toxic
Activity (H9c2 [33]): 68%
Activity (H9c2 [34]): 37%
Activity (H9c2 [35]): 39%
Activity (LLC-PK1 [36]): Non-Toxic
Activity (LLC-PK1 [37]): 33%
Activity (AGS [38]): inactive
Activity (AGS [39]): 73%
Activity (SK-OV-3 [24]): 48%
Activity (SK-OV-3 [16]): 29%
Activity (SK-OV-3 [40]): 39%
CC50 (MDA-MB-231 [17]): 0.56 µM
Drug uptake [41]: Active
Activity [42]: Active
Activity (CCRF-CEM [43]): 84%
Drug uptake [44]: Active
Drug uptake [45]: Active
Drug uptake [46]: Active
Drug uptake [47]: 78%
Drug uptake [48]: 72%
Drug uptake [49]: Active
Drug uptake [50]: Active

Source: ChEMBL document CHEMBL5036344, “Design and application of hybrid cyclic-linear peptide-doxorubicin conjugates as a strategy to overcome doxorubicin resistance and toxicity” (Eur J Med Chem, 2021)
